Consider two compounds from patent US20130123367A1, “VINYLOGOUS CHALCONE DERIVATIVES AND THEIR MEDICAL USE” (MEDIZINISCHE UNIVERSITAT WIEN, priority 2010, published 2013).

Like-named read-outs stand apart in the source and are kept apart here.

Series [1] has as its system SU-DHL-6 (Non Hodgkin's lymphoma). The series is described as follows: Cell viability assay using EZ4U viability kit, SU-DHL-6. Conditions: Homo sapiens. The class given is cell-based. The procedure:
(§1) For quantification, cells are treated with a tetrazolium salt as indicator of cell viability. […] Then, the solution is analyzed photometrically at 450 nm with 620 nm as reference.
(§2) The final DMSO concentration was 0.5%. […] Then, wells were filled with 20 μl substrate solution for 2 to 4 hours and analyzed.
(§3) Cell viability was calculated relative to DMSO control for data comparison. IC50 values (50% inhibition of cell growth) were determined with GraphPad Prism® (Version 4.03) using nonlinear regression (sigmoidal dose-response with variable slope).

In series [2] the test system is K562 (Chronic myeloid leukemia). In words: Cell viability assay using EZ4U viability kit, K562. The series is classed as cell-based. As to conditions: Homo sapiens. The procedure:
as §1, §2, §3

Series [3] has as its system SU-DHL-9 (Non Hodgkin's lymphoma). The series is described as follows: Cell viability assay using EZ4U viability kit, SU-DHL-9. The series is classed as cell-based. On the procedure:
as §1, §2, §3

Series [4] relates to colon cancer cell line SW480. The series is described as follows: Cell proliferation assay using crystal violet, SW480. The class given is cell-based. Conditions: Homo sapiens, n = 3, 24 h incubation. The procedure: For quantification, cells are treated with crystal violet, a dye that stains proteins. After washing away of excess dye, the remaining crystal violet is dissolved in a sodium citrate solution. The solution is analyzed photometrically at 590 nm. The optical density of this solution depends on the concentration of crystal violet and therefore on the amount of cells. […] To reduce effects of evaporation, only the inner 60 wells of 96-well plates (coated with 0.1% gelatine solution for studies with HUVEC) were used for experiments.
Cells were seeded at a density of 5 000 cells per well in 100 μl growth medium (HUVEC) or 20 000 (HCT116), 15 000 (SW480 and 518A2) or 10 000 (HT29) cells per well in 200 μl growth medium in 55 wells per plate. 5 wells were filled with medium only. Additionally, a 96-well plate with cells in 12 wells and medium in 6 wells was prepared as T0-plate. The next day, additional 98 μl of growth medium were added in every well (only HUVEC).
Cells were treated with 2 μl of the working solution 24 h after seeding. Final compound concentrations in the well were 10 μM for the first round of screening. The final DMSO concentration was 0.5%. […] After finishing the addition of compounds, the T0-plate was stained with crystal violet for giving the cell density at time point zero. Before staining, the growth medium was poured away. Wells were filled with 50 μl crystal violet solution for 10 min. Then the staining solution was washed away with water. Since crystal violet is environmentally hazardous the waste was collected and disposed in an appropriate manner. After air drying of the plates the crystal violet on the cells was dissolved in 100 μl of sodium citrate solution, and the absorption was measured with a plate reader at 590 nm.
Mean values were corrected with the absorption of stained medium and the corrected absorption of T0 cells. Cell growth was calculated relative to DMSO control for data comparison. IC50 values (50% inhibition of cell growth) were determined with GraphPad Prism® (Version 4.03) using nonlinear regression (sigmoidal dose-response with variable slope).
Compounds showing an inhibition of proliferation of more than 50% at a concentration of 10 μM were defined as active, and their IC50-values were determined.

Series [5] deals with healthy peripheral blood mononuclear cells (PBMC). In words: Effect on healthy PBMC (CellTiter-Blue viability). On the procedure:
FIG. 8: Effect of compounds 1 and 22 according to the invention as well as the control drugs fludarabine and cyclophosphamide on the viability of healthy peripheral blood mononuclear cells (PBMC) in suspension culture after 48 h incubation. Data points represent one individual calculated in relation to the control. Viability was measured using the CellTiter Blue assay (Promega, Madison, Wis., USA), and cells incubated in solvent only were used as control.
For quantification, cells were treated with resazurin (7-hydroxy-3H-phenoxazin-3-one 10-oxide) as indicator of cell viability. The method is based on the finding that living cells are able to reduce the non-fluorescent blue dye into the pink colored and highly red fluorescent resorufine. After adding the substrate the cells are incubated for 2 to 4 hours. Then, the solution is analyzed at 560 nm Ex/590 nm Em on a fluorometer. Appropriate cell density for seeding and duration of treatment with the substrate were determined in preliminary experiments.
First, cells were seeded in 96 well plates and then growth medium was added to each well to get a final volume of 80 μl. Compounds to be tested were diluted with medium from a 10 mM stock solution in DMSO to get different concentrations, and 20 μl of these solutions were added to the wells. The final DMSO concentration was 0.5%. All treatments and controls were performed in at least triplicates. Cells were incubated at 37° C. and 5% CO2 for 48 h. Then, 20 μl substrate solution was added to the wells, plates were incubated for 3 hours and analyzed.
The impact of the compounds according to the invention on healthy cells was assessed using peripheral blood mononuclear cells (PBMC). Cell viability was tested using the CellTiter-Blue Cell Viability Assay (Promega, Madison, Wis., USA) as described in Example 7.

Series [6] deals with SU-DHL-6 or SU-DHL-9 NHL cells. In words: Annexin V-FITC / propidium iodide staining, early apoptosis in NHL cells. The class given is cell-based. Conditions: 48 h incubation; FIG. 2. On the procedure: FIG. 2. Changes in early apoptosis in SU-DHL-6 or SU-DHL-9 NHL cells after 48 h incubation with compounds 1 and 22, respectively. Effect of compound 1 in a) SU-DHL-6 and b) SU-DHL-9, and effect of compound 22 in c) SU-DHL-6 and d) SU-DHL-9. Apoptosis was detected using propidium iodide/Annexin V FACS staining (Bender MedSystems). Viability was detected using the EZ4U viability kit (Biomedica).
Annexin V binds to phosphatidylserine which is exposed at the cell surface during execution of apoptosis. […] The final DMSO concentration was 0.5%. All treatments and controls were performed twice. […] Then, growth medium was removed by centrifugation, the supernatant discarded and 200 μl of an Annexin V solution were added. After 10 minutes in the dark, cells were washed once with Annexin buffer and the solution removed by centrifugation. The supernatant was discarded again and cells were suspended in 200 μl of a propidium iodide solution. Cells were measured by flow cytometry with a total of 10 000 events. Data were analyzed with CellQuest Pro™.

The test system of series [7] is chronic lymphocytic leukemia (CLL) cells in co-culture with stromal cells. In words: Co-culture model of primary CLL cells and stromal cells (CellTiter-Blue viability). The class given is cell-based. Conditions: 48 h incubation; mean of 5 patients; FIG. 7. From the text:
FIG. 7: […] Data points represent the arithmetic mean of 5 patients calculated in relation to the control. […] The final DMSO concentration was 0.5%. […] In many tumors, the microenvironment plays a major role for the survival of malignant cells. In chronic lymphocytic leukemia (CLL), it has been shown that interaction with the microenvironment, among other things, promotes the survival of tumor cells during chemotherapy. Thus, co-culture models have been developed which better reflect the in vivo situation. The inventors used such a pre-clinical model for drug incubation to study the effect of stromal cells on viability.
A general note: Resazurin is reduced to fluorescent resorufin, in cell work by metabolically active cells.

The mark [8] stands for this setting: 24 h incubation, read-out: IC50 (nM) SU-DHL-6 24 h.
Where [9] appears, read: 48 h incubation, read-out: IC50 (nM) SU-DHL-6 48 h.
[10] abbreviates: 24 h incubation, read-out: IC50 (nM) K562 24 h (converted).
The mark [11] stands for this setting: 48 h incubation, read-out: IC50 (nM) K562 48 h (converted).
The mark [12] stands for this setting: 24 h incubation, read-out: IC50 (nM) SU-DHL-9 24 h.
Where [13] appears, read: 48 h incubation, read-out: IC50 (nM) SU-DHL-9 48 h.

As a reminder, the IC50 is the concentration at which inhibition is half-maximal. For `CCOc1ccccc1C(=O)/C=C/c1ccc2ccccc2c1` [Compound 22, 3-(2-Naphthyl)-1-(2′-ethoxyphenyl)-2-propene-1-one], the IC50 in series [1] (setting [8]) was 10 nM; in series [1] (setting [9]), 40 nM; in series [2] (setting [10]), 17700 nM; in series [2] (setting [11]), 13700 nM; in series [3] (setting [12]) it was 30 nM; in series [3] (setting [13]), 50 nM. In series [4], the 50% inhibitory concentration (IC50) was 30 nM. For the same compound, the “viability of healthy PBMC in suspension culture (toxicity)” value in series [5] is listed as “less toxic”. Further, the “early apoptosis (propidium iodide/Annexin V FACS staining)” value in series [6] is “induce early apoptosis”. In series [7], the “viability of CLL cells in co-culture with stromal cells” value is “higher cytotoxicity than the control drugs fludarabine and cyclophosphamide”.
Regarding `COc1ccccc1/C=C/C=C/C(=O)c1cc(OC)c(OC)c(OC)c1` [Compound 1, 5-(2-Methoxyphenyl)-1-(3′,4′,5′-trimethoxyphenyl)-2,4-pentadiene-1-one], the half-maximal inhibitory concentration (IC50) in series [1] (setting [8]) was 180 nM; in series [1] (setting [9]), 20 nM; in series [2] (setting [10]) it was 20900 nM; in series [2] (setting [11]), 50 nM; in series [3] (setting [12]) it was 60 nM; in series [3] (setting [13]), 50 nM. This compound also displayed an IC50 in series [4] of 520 nM. Besides, the “viability of healthy PBMC in suspension culture (toxicity)” value in series [5] is on record as “less toxic”. Besides, the “early apoptosis (propidium iodide/Annexin V FACS staining)” value in series [6] was “induce early apoptosis”. In addition, the “viability of CLL cells in co-culture with stromal cells” value in series [7] is “higher cytotoxicity than the control drugs fludarabine and cyclophosphamide”.
